Where “and” joins values, the source holds several entries; their conditions need not be identical. Identical values can stand only once. ± gives the expanded uncertainty stated by the source.
Assay: xn = mol fraction of the nth substance listed
Details: x2 = 0.79; for electrical conductivity / mass density: 100 kPa, Liquid; for electrical conductivity: Alternating current cell with electrodes; for mass density: Buoyancy - hydrostatic balance; for surface tension liquid-gas: Maximal bubble pressure

[Ca+2].[F-].[F-] [calcium fluoride] + [F-].[Li+]
electrical conductivity (1131.2 K): 0.05865 ± 0.00042 S/m
mass density (1131.4 K): 2066.7 ± 7.1 kg/m3
mass density (1131.9 K): 2066.7 ± 7.1 kg/m3
mass density (1132.7 K): 2065.5 ± 7.1 kg/m3
mass density (1132.8 K): 2066 ± 7.1 kg/m3
electrical conductivity (1133 K): 0.05876 ± 0.00038 S/m
mass density (1133.3 K): 2064.9 ± 8 kg/m3
mass density (1134.1 K): 2064.2 ± 8.2 kg/m3
mass density (1134.2 K): 2064.2 ± 8.1 kg/m3
electrical conductivity (1134.7 K): 0.05888 ± 0.00044 S/m
mass density (1135 K): 2063.5 ± 8.1 kg/m3
mass density (1135.3 K): 2062.4 ± 7.9 kg/m3 and 2063 ± 7.9 kg/m3
mass density (1135.7 K): 2062.4 ± 7.9 kg/m3
mass density (1136.2 K): 2061.7 ± 8.1 kg/m3
electrical conductivity (1136.4 K): 0.05912 ± 0.00048 S/m
mass density (1136.5 K): 2060.6 ± 8.1 kg/m3
mass density (1136.8 K): 2060.6 ± 8 kg/m3
mass density (1136.9 K): 2061.1 ± 8.2 kg/m3
mass density (1137.2 K): 2060 ± 8.3 kg/m3
mass density (1137.5 K): 2061.6 ± 8 kg/m3
mass density (1137.8 K): 2061 ± 8 kg/m3
electrical conductivity (1138.1 K): 0.05927 ± 0.00054 S/m
mass density (1138.2 K): 2060.4 ± 8 kg/m3
mass density (1138.7 K): 2059.8 ± 8 kg/m3
mass density (1139.3 K): 2059.2 ± 8.1 kg/m3
electrical conductivity (1139.9 K): 0.05965 ± 0.00057 S/m
mass density (1140 K): 2059.1 ± 7.9 kg/m3
mass density (1140.4 K): 2058.5 ± 8 kg/m3
mass density (1140.8 K): 2057.9 ± 7.8 kg/m3
mass density (1141.1 K): 2057.3 ± 7.9 kg/m3
mass density (1141.4 K): 2056.7 ± 7.8 kg/m3
electrical conductivity (1141.5 K): 0.05989 ± 0.00057 S/m
mass density (1142 K): 2056.6 ± 7.1 kg/m3
mass density (1142.7 K): 2056 ± 7.1 kg/m3
electrical conductivity (1143.2 K): 0.06013 ± 0.00052 S/m
mass density (1143.4 K): 2055.4 ± 7.1 kg/m3
mass density (1143.5 K): 2054.8 ± 7.1 kg/m3
mass density (1144.2 K): 2054.7 ± 7.1 kg/m3
mass density (1144.4 K): 2054.1 ± 7.1 kg/m3
mass density (1144.7 K): 2053.5 ± 7.1 kg/m3
electrical conductivity (1144.9 K): 0.06033 ± 0.00046 S/m
mass density (1145.2 K): 2053.5 ± 7.1 kg/m3
mass density (1145.5 K): 2052.9 ± 7.1 kg/m3
mass density (1146 K): 2061.1 ± 7.1 kg/m3
electrical conductivity (1146.5 K): 0.06057 ± 0.00043 S/m
mass density (1146.5 K): 2061.1 ± 7.1 kg/m3
mass density (1146.9 K): 2060.5 ± 7.1 kg/m3
mass density (1147.5 K): 2059.8 ± 7.1 kg/m3
mass density (1147.8 K): 2059.2 ± 7.1 kg/m3
mass density (1148 K): 2059.2 ± 7.1 kg/m3
electrical conductivity (1148.2 K): 0.06057 ± 0.0004 S/m
mass density (1148.6 K): 2058.6 ± 7.1 kg/m3
mass density (1148.9 K): 2058 ± 7.1 kg/m3
mass density (1149 K): 2058 ± 7.1 kg/m3
mass density (1149.7 K): 2057.4 ± 7.1 kg/m3
electrical conductivity (1149.9 K): 0.06079 ± 0.00041 S/m
mass density (1150.3 K): 2056.7 ± 7.9 kg/m3
mass density (1150.8 K): 2056.7 ± 8.1 kg/m3
surface tension liquid-gas (1151 K): 215.9 ± 10 mN/m
electrical conductivity (1151.4 K): 0.06095 ± 0.00043 S/m
mass density (1151.4 K): 2056.1 ± 8.2 kg/m3
mass density (1152 K): 2055.4 ± 8.2 kg/m3
mass density (1152.6 K): 2055.4 ± 8 kg/m3
mass density (1152.9 K): 2054.8 ± 8 kg/m3
electrical conductivity (1153 K): 0.06111 ± 0.00047 S/m
mass density (1153.8 K): 2054.1 ± 7.9 kg/m3
mass density (1154.1 K): 2053.5 ± 7.9 kg/m3
electrical conductivity (1154.5 K): 0.06131 ± 0.00049 S/m
mass density (1154.6 K): 2053.5 ± 7.9 kg/m3
mass density (1154.8 K): 2052.3 ± 8.1 kg/m3 and 2052.9 ± 8.1 kg/m3
mass density (1155.5 K): 2051.7 ± 8 kg/m3
mass density (1155.6 K): 2051.7 ± 8 kg/m3
mass density (1155.9 K): 2051.1 ± 8.1 kg/m3
electrical conductivity (1156.2 K): 0.0616 ± 0.00046 S/m
mass density (1156.5 K): 2050.5 ± 8 kg/m3
mass density (1156.6 K): 2049.9 ± 8 kg/m3 and 2051 ± 8 kg/m3
mass density (1157.1 K): 2050.4 ± 8.1 kg/m3
mass density (1157.5 K): 2050.4 ± 8.1 kg/m3
electrical conductivity (1157.7 K): 0.06168 ± 0.00045 S/m
mass density (1157.7 K): 2049.8 ± 8.1 kg/m3
mass density (1158.8 K): 2049.1 ± 8 kg/m3
mass density (1159 K): 2048.5 ± 7.8 kg/m3
mass density (1159.1 K): 2048.5 ± 7.8 kg/m3
electrical conductivity (1159.2 K): 0.06195 ± 0.00045 S/m
mass density (1159.9 K): 2047.9 ± 7.8 kg/m3
mass density (1160.2 K): 2047.3 ± 7.7 kg/m3
electrical conductivity (1160.7 K): 0.06201 ± 0.00037 S/m
mass density (1161.3 K): 2046.6 ± 7.2 kg/m3
mass density (1161.9 K): 2046 ± 7.2 kg/m3
electrical conductivity (1162.1 K): 0.062142 ± 4e-06 S/m
mass density (1162.8 K): 2045.9 ± 7.2 kg/m3
mass density (1163.2 K): 2045.3 ± 7.1 kg/m3
electrical conductivity (1163.6 K): 0.062335 ± 4e-06 S/m
mass density (1163.6 K): 2044.7 ± 7.2 kg/m3
mass density (1164.3 K): 2044.6 ± 7.1 kg/m3
mass density (1164.7 K): 2048.4 ± 7.2 kg/m3
electrical conductivity (1164.8 K): 0.062395 ± 4e-06 S/m
mass density (1164.9 K): 2048.4 ± 7.1 kg/m3
mass density (1165.1 K): 2048.4 ± 7.2 kg/m3
mass density (1165.4 K): 2047.8 ± 7.2 kg/m3
mass density (1166.2 K): 2047.1 ± 7.2 kg/m3
mass density (1166.5 K): 2046.5 ± 7.2 kg/m3
mass density (1167.2 K): 2046.4 ± 7.3 kg/m3
mass density (1167.7 K): 2045.8 ± 7.3 kg/m3
mass density (1167.9 K): 2045.3 ± 7.3 kg/m3
mass density (1168.5 K): 2045.2 ± 7.3 kg/m3
mass density (1168.8 K): 2044.6 ± 8.1 kg/m3
mass density (1169 K): 2044.6 ± 8.2 kg/m3
mass density (1169.3 K): 2044 ± 8.3 kg/m3
mass density (1169.9 K): 2043.4 ± 7.2 kg/m3
surface tension liquid-gas (1170 K): 216 ± 10 mN/m
mass density (1170.1 K): 2042.8 ± 7.2 kg/m3
mass density (1170.6 K): 2042.7 ± 7.2 kg/m3
mass density (1171.2 K): 2042.1 ± 7.2 kg/m3
mass density (1171.5 K): 2041.5 ± 7.2 kg/m3
mass density (1171.9 K): 2040.9 ± 7.2 kg/m3
mass density (1172.2 K): 2040.9 ± 7.2 kg/m3
mass density (1172.9 K): 2040.3 ± 7.2 kg/m3
mass density (1173.2 K): 2039.7 ± 7.2 kg/m3
mass density (1173.3 K): 2039.1 ± 7.2 kg/m3
mass density (1173.6 K): 2039.1 ± 7.2 kg/m3
mass density (1173.8 K): 2038.5 ± 7.2 kg/m3
mass density (1174.9 K): 2043.9 ± 7.2 kg/m3
mass density (1175.4 K): 2043.3 ± 7.1 kg/m3
mass density (1176 K): 2042.7 ± 7.1 kg/m3
mass density (1176.3 K): 2042.1 ± 7.2 kg/m3
mass density (1177.1 K): 2042 ± 7.2 kg/m3
mass density (1177.5 K): 2041.4 ± 7.2 kg/m3
mass density (1178.4 K): 2040.7 ± 7.1 kg/m3
mass density (1179.4 K): 2040 ± 8.2 kg/m3
mass density (1179.7 K): 2040 ± 8.2 kg/m3
mass density (1180.3 K): 2039.4 ± 8.2 kg/m3
mass density (1180.5 K): 2038.3 ± 7.4 kg/m3 and 2038.8 ± 7.4 kg/m3
mass density (1180.8 K): 2037.7 ± 7.4 kg/m3
mass density (1181 K): 2037.1 ± 7.4 kg/m3
mass density (1181.2 K): 2037.1 ± 7.5 kg/m3
mass density (1181.6 K): 2036.5 ± 7.4 kg/m3
mass density (1182.2 K): 2035.9 ± 7.5 kg/m3
mass density (1182.5 K): 2035.8 ± 7.4 kg/m3
mass density (1182.8 K): 2035.2 ± 7.5 kg/m3
mass density (1183.2 K): 2034.6 ± 7.4 kg/m3
mass density (1183.9 K): 2034.6 ± 7.5 kg/m3
mass density (1184.1 K): 2034 ± 7.5 kg/m3
mass density (1184.5 K): 2033.9 ± 7.5 kg/m3
mass density (1185.8 K): 2036.5 ± 7.2 kg/m3
mass density (1186.6 K): 2035.9 ± 7.2 kg/m3
mass density (1187 K): 2035.3 ± 7.2 kg/m3
mass density (1187.8 K): 2035.2 ± 7.2 kg/m3
surface tension liquid-gas (1188 K): 213.8 ± 10 mN/m
mass density (1188.4 K): 2034.6 ± 7.2 kg/m3
mass density (1189.1 K): 2033.9 ± 7.2 kg/m3
mass density (1189.4 K): 2033.9 ± 7.2 kg/m3
mass density (1189.9 K): 2033.3 ± 7.8 kg/m3
mass density (1190.2 K): 2032.7 ± 7.8 kg/m3
mass density (1190.8 K): 2032.6 ± 7.9 kg/m3
mass density (1191.6 K): 2032 ± 7.9 kg/m3
mass density (1192.4 K): 2031.4 ± 8 kg/m3
mass density (1192.9 K): 2030.7 ± 8 kg/m3
mass density (1193.2 K): 2030.7 ± 7.9 kg/m3
mass density (1193.7 K): 2030.1 ± 7.9 kg/m3
mass density (1194.1 K): 2029.5 ± 7.9 kg/m3
mass density (1194.4 K): 2029.5 ± 7.9 kg/m3
mass density (1194.5 K): 2028.9 ± 7.9 kg/m3
mass density (1194.7 K): 2028.3 ± 7.9 kg/m3
mass density (1195.3 K): 2028.3 ± 7.9 kg/m3
mass density (1195.7 K): 2027.7 ± 7.9 kg/m3
mass density (1196 K): 2027.1 ± 7.9 kg/m3
mass density (1196.4 K): 2027 ± 8 kg/m3
mass density (1197.1 K): 2026.4 ± 7.9 kg/m3
mass density (1197.6 K): 2026.3 ± 8 kg/m3
mass density (1198.3 K): 2025.7 ± 8.2 kg/m3
mass density (1198.8 K): 2025.1 ± 8.1 kg/m3
mass density (1199.3 K): 2025 ± 8.1 kg/m3
mass density (1199.6 K): 2024.4 ± 8.2 kg/m3
mass density (1200 K): 2024.4 ± 12 kg/m3
mass density (1200.6 K): 2023.8 ± 12 kg/m3
mass density (1200.8 K): 2023.2 ± 12 kg/m3
mass density (1201.2 K): 2023.2 ± 12 kg/m3
mass density (1201.6 K): 2022.6 ± 12 kg/m3
mass density (1202.1 K): 2022 ± 12 kg/m3
mass density (1202.3 K): 2020.8 ± 12 kg/m3
mass density (1202.5 K): 2020.8 ± 12 kg/m3
mass density (1203 K): 2020.2 ± 12 kg/m3
mass density (1203.4 K): 2020.1 ± 12 kg/m3
mass density (1203.7 K): 2019.6 ± 12 kg/m3

From the NIST ThermoML archive (doi:10.1021/acs.jced.5b00536)
